Several values for one entry are separate records, joined by “and”; a condition that tells them apart may be missing. Equal entries are not always repeated. HELM strings list units from the 5' end as sugar, base in round brackets, then linkage (d deoxyribose, r ribose, m 2'-O-methyl, p phosphodiester). Strings are as the collection lists them, not checked against the first reports. ss, as = sense and antisense strand; [lna] = locked nucleic acid (LNA); [una] = unlocked nucleic acid; [hna] = hexitol nucleic acid; [s4r] = 4'-thioribose; [fl2r] = 2'-fluoro
Also: test system not given here.

The conditions of the data set: siRNA.
On to “RNA1{r(A)p.r(A)p.r(G)p.r(G)p.r(A)p.r(G)p.r(A)p.r(U)p.r(C)p.r(A)p.r(A)p.r(C)p.r(A)p.r(U)p.r(U)p.r(U)p.m(U)p.m(C)p.m(A)p.r(T)p.r(T)}|RNA2{r(U)p.r(G)p.r(A)p.r(A)p.r(A)p.r(A)p.r(U)p.r(G)p.r(U)p.r(U)p.r(G)p.r(A)p.r(U)p.r(C)p.r(U)p.r(C)p.m(C)p.m(U)p.m(U)p.r(T)p.r(T)}$$$RNA1{StrandType:ss}|RNA2{StrandType:as}$”, for which the target mRNA knockdown turned out to be 73%.
Then “RNA1{r(C)p.r(U)p.r(U)p.r(A)p.r(C)p.r(G)p.r(C)p.r(U)p.r(G)p.r(A)p.r(G)p.r(U)p.r(A)p.r(C)p.r(U)p.r(U)p.r(C)p.r(G)p.r(A)p.r(T)p.r(T)}|RNA2{r(U)p.r(C)p.r(G)p.r(A)p.r(A)p.r(G)p.r(U)p.r(A)p.r(C)p.r(U)p.r(C)p.r(A)p.r(G)p.r(C)p.r(G)p.r(U)p.r(A)p.[lna](A)p.r(G)p.r(T)p.r(T)}$$$RNA1{StrandType:ss}|RNA2{StrandType:as}$”, with 92%; and “RNA1{r(G)p.[fl2r](C)p.r(A)p.r(G)p.[fl2r](C)p.r(A)p.[fl2r](C)p.r(G)p.r(A)p.[fl2r](C)p.[fl2r](U)p.[fl2r](U)p.[fl2r](C)p.[fl2r](U)p.[fl2r](U)p.[fl2r](C)p.r(A)p.r(A)p.r(G)p.r(T)p.r(T)}|RNA2{[fl2r](C)p.[fl2r](U)p.[fl2r](U)p.r(G)p.r(A)p.r(A)p.r(G)p.r(A)p.r(A)p.r(G)p.[fl2r](U)p.[fl2r](C)p.r(G)p.[fl2r](U)p.r(G)p.[fl2r](C)p.[fl2r](U)p.r(G)p.[fl2r](C)p.r(T)p.r(T)}$$$RNA1{StrandType:ss}|RNA2{StrandType:as}$”, with 83%.
The value for “RNA1{r(A)p.r(U)p.m(C)p.r(A)p.m(C)p.r(A)p.r(A)p.r(A)p.r(C)p.r(C)p.r(C)p.r(C)p.r(U)p.r(A)p.r(G)p.r(A)p.r(G)p.r(G)p.r(G)p.r(T)p.r(T)}|RNA2{r(C)p.r(C)p.r(C)p.r(U)p.r(C)p.m(U)p.r(A)p.r(G)p.r(G)p.r(G)p.r(G)p.r(U)p.r(U)p.r(U)p.r(G)p.m(U)p.r(G)p.r(A)p.r(U)p.r(T)p.r(T)}$$$RNA1{StrandType:ss}|RNA2{StrandType:as}$” was 75%; that for “RNA1{r(U)p.r(C)p.r(C)p.r(U)p.r(A)p.r(C)p.r(A)p.r(G)p.r(C)p.r(A)p.r(C)p.r(A)p.r(A)p.r(C)p.r(A)p.r(A)p.r(A)p.r(U)p.r(G)p.d(U)p.d(G)}|RNA2{r(C)p.r(A)p.r(U)p.r(U)p.r(U)p.r(G)p.r(U)p.r(U)p.r(G)p.r(U)p.r(G)p.r(C)p.r(U)p.r(G)p.r(U)p.r(A)p.r(G)p.r(G)p.r(A)p.d(T)p.d(T)}$$$RNA1{StrandType:ss}|RNA2{StrandType:as}$” was 54%.
Regarding “RNA1{m(A)p.r(G)p.m(C)p.r(G)p.m(G)p.r(G)p.m(G)p.r(U)p.m(A)p.r(U)p.m(G)p.r(A)p.m(A)p.r(G)p.m(A)p.r(G)p.m(C)p.r(U)p.m(U)p.r(T)p.r(T)}|RNA2{r(A)p.r(A)p.r(G)p.r(C)p.r(U)p.r(C)p.r(U)p.r(U)p.r(C)p.r(A)p.r(U)p.r(A)p.r(C)p.r(C)p.r(C)p.r(C)p.r(G)p.r(C)p.r(U)p.r(T)p.r(T)}$$$RNA1{StrandType:ss}|RNA2{StrandType:as}$”, the target mRNA knockdown came to 75%.
Then “RNA1{m(G)p.r(C)p.m(U)p.r(U)p.m(U)p.r(A)p.m(A)p.r(G)p.m(G)p.r(A)p.m(A)p.r(C)p.m(U)p.r(G)p.m(G)p.r(A)p.m(A)p.r(G)p.m(G)p.r(T)p.r(T)}|RNA2{r(C)p.m(C)p.r(U)p.m(U)p.r(C)p.m(C)p.r(A)p.m(G)p.r(U)p.m(U)p.r(C)p.r(C)p.r(U)p.r(U)p.r(A)p.r(A)p.r(A)p.r(G)p.r(C)p.r(T)p.r(T)}$$$RNA1{StrandType:ss}|RNA2{StrandType:as}$”, with 25%; and “RNA1{r(G)p.r(A)p.r(C)p.r(G)p.[hna](U)p.r(A)p.r(A)p.[hna](A)p.r(C)p.r(G)p.[hna](G)p.r(C)p.r(C)p.[hna](A)p.r(C)p.r(A)p.r(A)p.r(G)p.[hna](U)p.[hna](U)p.d(T)}|RNA2{r(A)p.[hna](C)p.r(U)p.r(U)p.r(G)p.r(U)p.r(G)p.r(G)p.r(C)p.r(C)p.r(G)p.r(U)p.r(U)p.r(U)p.r(A)p.r(C)p.r(G)p.[hna](U)p.[hna](C)p.[hna](G)p.d(T)}$$$RNA1{StrandType:ss}|RNA2{StrandType:as}$”, with 23.2%; and “RNA1{m(A)p.m(A)p.r(C)p.r(C)p.r(C)p.m(A)p.r(C)p.r(C)p.m(A)p.r(C)p.m(A)p.r(G)p.r(C)p.m(U)p.m(A)p.r(G)p.m(A)p.m(A)p.r(C)p.r(U)p.r(U)}|RNA2{r(A)p.r(A)p.r(G)p.r(U)p.r(U)p.r(C)p.m(U)p.r(A)p.r(G)p.r(C)p.r(U)p.r(G)p.r(U)p.r(G)p.r(G)p.r(U)p.r(G)p.r(G)p.r(G)p.r(U)p.r(U)}$$$RNA1{StrandType:ss}|RNA2{StrandType:as}$”, with 32%.
The value for “RNA1{[fl2r](G)p.m(A)p.[fl2r](C)p.m(G)p.[fl2r](U)p.m(A)p.[fl2r](A)p.m(A)p.[fl2r](C)p.m(G)p.[fl2r](G)p.m(C)p.[fl2r](C)p.m(A)p.[fl2r](C)p.m(A)p.[fl2r](A)p.m(G)p.[fl2r](U)p.m(U)p.[fl2r](C)}|RNA2{r(A)p.r(C)p.r(U)p.r(U)p.r(G)p.r(U)p.r(G)p.r(G)p.r(C)p.r(C)p.r(G)p.r(U)p.r(U)p.r(U)p.r(A)p.r(C)p.r(G)p.r(U)p.r(C)p.r(G)p.r(C)}$$$RNA1{StrandType:ss}|RNA2{StrandType:as}$” was 87.3%; that for “RNA1{m(G)p.r(U)p.m(A)p.r(C)p.m(U)p.r(C)p.m(U)p.r(G)p.m(A)p.r(U)p.m(G)p.r(A)p.m(G)p.r(G)p.m(A)p.r(A)p.m(G)p.r(A)p.m(G)p.r(T)p.r(T)}|RNA2{r(C)p.r(U)p.r(C)p.r(U)p.r(U)p.r(C)p.r(C)p.r(U)p.r(C)p.r(A)p.r(U)p.r(C)p.r(A)p.r(G)p.r(A)p.r(G)p.r(U)p.r(A)p.r(C)p.r(T)p.r(T)}$$$RNA1{StrandType:ss}|RNA2{StrandType:as}$” was 18%.
The substance “RNA1{m(A)p.r(U)p.m(C)p.r(U)p.m(A)p.r(C)p.m(C)p.r(C)p.m(A)p.r(G)p.m(C)p.r(U)p.m(C)p.r(U)p.m(C)p.r(C)p.m(C)p.r(U)p.m(U)p.r(T)p.r(T)}|RNA2{r(A)p.r(A)p.r(G)p.r(G)p.r(G)p.r(A)p.r(G)p.r(A)p.r(G)p.r(C)p.m(U)p.r(G)p.r(G)p.r(G)p.m(U)p.r(A)p.r(G)p.r(A)p.m(U)p.r(T)p.r(T)}$$$RNA1{StrandType:ss}|RNA2{StrandType:as}$” gave a target mRNA knockdown of 43%.
The value for “RNA1{r(C)p.r(G)p.r(U)p.r(A)p.r(C)p.r(G)p.r(C)p.r(G)p.r(G)p.r(A)p.r(A)p.r(U)p.r(A)p.r(C)p.r(U)p.r(U)p.r(C)p.[s4r](G)p.[s4r](A)p.r(T)p.r(T)}|RNA2{[s4r](U)p.[s4r](C)p.r(G)p.r(A)p.r(A)p.r(G)p.r(U)p.r(A)p.r(U)p.r(U)p.r(C)p.r(C)p.r(G)p.r(C)p.r(G)p.r(U)p.r(A)p.r(C)p.r(G)p.r(T)p.r(T)}$$$RNA1{StrandType:ss}|RNA2{StrandType:as}$” was 91.2%; that for “RNA1{r(G)p.[fl2r](A)p.r(A)p.r(A)p.[fl2r](C)p.[fl2r](U)p.r(G)p.r(G)p.[fl2r](U)p.[fl2r](A)p.[fl2r](C)p.[fl2r](U)p.[fl2r](U)p.[fl2r](U)p.[fl2r](C)p.[fl2r](C)p.[fl2r](C)p.[fl2r](C)p.[fl2r](C)p.r(T)p.r(T)}|RNA2{r(G)p.r(G)p.r(G)p.r(G)p.r(G)p.r(A)p.r(A)p.r(A)p.r(G)p.r(U)p.r(A)p.r(C)p.r(C)p.r(A)p.r(G)p.r(U)p.r(U)p.r(U)p.r(C)p.r(T)p.r(T)}$$$RNA1{StrandType:ss}|RNA2{StrandType:as}$” was 60%.
For “RNA1{m(A)p.m(A)p.m(G)p.r(G)p.r(A)p.r(G)p.r(A)p.r(U)p.r(C)p.r(A)p.r(A)p.r(C)p.r(A)p.r(U)p.r(U)p.r(U)p.r(U)p.r(C)p.r(A)p.r(T)p.r(T)}|RNA2{m(U)p.m(G)p.m(A)p.r(A)p.r(A)p.r(A)p.r(U)p.r(G)p.r(U)p.r(U)p.r(G)p.r(A)p.r(U)p.r(C)p.r(U)p.r(C)p.r(C)p.r(U)p.r(U)p.r(T)p.r(T)}$$$RNA1{StrandType:ss}|RNA2{StrandType:as}$”, the target mRNA knockdown was 60%.
The value for “RNA1{r(G)p.r(U)p.r(A)p.r(U)p.r(G)p.r(A)p.r(C)p.r(C)p.r(G)p.r(A)p.r(C)p.r(U)p.r(A)p.r(C)p.r(G)p.r(C)p.r(G)p.r(U)p.r(A)p.r(T)p.r(T)}|RNA2{r(U)p.r(U)p.r(C)p.r(A)p.r(G)p.r(U)p.r(G)p.r(U)p.r(G)p.r(A)p.r(U)p.r(G)p.r(A)p.r(C)p.r(A)p.r(C)p.[una](U)p.r(U)p.r(G)p.r(T)p.r(T)}$$$RNA1{StrandType:ss}|RNA2{StrandType:as}$” was 87%; that for “RNA1{r(C)p.r(U)p.r(C)p.r(U)p.r(C)p.r(C)p.[fl2r](U)p.r(A)p.r(C)p.r(C)p.r(U)p.[fl2r](U)p.r(C)p.r(U)p.r(C)p.r(C)p.[fl2r](U)p.r(C)p.r(U)p.r(T)p.r(T)}|RNA2{r(A)p.r(G)p.r(A)p.r(G)p.r(G)p.r(A)p.r(G)p.r(A)p.r(A)p.r(G)p.r(G)p.[fl2r](U)p.r(A)p.r(G)p.r(G)p.r(A)p.r(G)p.r(A)p.r(G)p.r(T)p.r(T)}$$$RNA1{StrandType:ss}|RNA2{StrandType:as}$” was 73%; that for “RNA1{r(A)p.r(A)p.r(G)p.r(G)p.r(A)p.r(G)p.r(A)p.m(U)p.m(C)p.r(A)p.r(A)p.m(C)p.r(A)p.m(U)p.m(U)p.m(U)p.m(U)p.m(C)p.r(A)p.r(T)p.r(T)}|RNA2{m(U)p.r(G)p.r(A)p.r(A)p.r(A)p.r(A)p.m(U)p.r(G)p.r(U)p.r(U)p.r(G)p.r(A)p.m(U)p.m(C)p.m(U)p.m(C)p.m(C)p.m(U)p.m(U)p.r(T)p.r(T)}$$$RNA1{StrandType:ss}|RNA2{StrandType:as}$” was 53% and 74%.
Substance “RNA1{r(C)p.r(U)p.r(G)p.r(G)p.r(U)p.r(A)p.r(A)p.r(A)p.r(G)p.r(C)p.r(A)p.r(U)p.r(U)p.r(C)p.r(A)p.r(G)p.r(U)p.r(A)p.r(U)p.d(T)p.d(T)}|RNA2{r(A)p.r(U)p.r(A)p.r(C)p.r(U)p.r(G)p.r(A)p.r(A)p.r(U)p.r(G)p.r(C)p.r(U)p.r(U)p.r(U)p.r(A)p.r(C)p.r(C)p.r(A)p.r(G)p.d(T)p.d(T)}$$$RNA1{StrandType:ss}|RNA2{StrandType:as}$” gave a target mRNA knockdown of 82%.

Values taken from the OligoGym collection.
